Like-named read-outs stand apart in the source and are kept apart here.
How the values were obtained:
[1] = Equilibrium dialysis, fraction unbound in patient brain tumor tissue; format: in vitro ADME; details: human, five patients, 16 h equilibrium dialysis
Description: (§1) Equilibrium dialysis was employed to measure the fraction unbound of analytes in plasma, brain, and brain tumor tissue homogenates using 96-well DispoEquilibrium Dialyzer plates with a 10 kDa cut-off regenerated cellulose membrane. Dialysis was performed using 180 μL of human plasma or tissue homogenate against an equal volume of PBS (pH 7.4) in a dual-plate rotator (Harvard Apparatus, Holliston, MA, USA). Equilibrium time was initially optimized by analyzing samples after 2, 4, 6, 8, 16, and 24 h of dialysis at concentrations of 20 and 200 nM in human plasma and brain homogenate. The dialysates were collected and processed as described in Sections 2.3.2 and 2.3.3. The recovery of analytes was calculated as the ratio of analyte concentration after dialysis (sum of concentrations found in PBS and matrix fractions) to the total concentration to ensure the reliability and reproducibility of the assay. The experiments were repeated at least three times, and each sample in triplicate and average fraction unbound values were determined.
(§2) The fraction unbound in plasma (fu, plasma) and tissue homogenate (fu, hom) was evaluated as the analyte concentration ratio of post-dialysis PBS (cu) to post-dialysis plasma (cp, Eq. (1)) or homogenate (chom, Eq. (2)).(1) fu,plasma =cu/cp (2) fu,hom =cu/chom
(§3) The fraction unbound in the actual tissue (fu, tissue) was obtained by incorporating the unbound fraction in the tissue homogenate (fu, hom) and the dilution factor (Df) into Eq. (3).(3) fu,tissue = fu,hom/[Df - (Df - 1)fu,hom]
Unbound drug levels in the actual plasma and brain tumor tissue were measured using dialysis for 16 h to reach equilibrium. The mean of fraction unbound values determined in five patient samples was calculated.
(§4) The validated bioanalytical method was employed to investigate analytes pharmacokinetics in the plasma, brain tumor, and CSF in GBM patients (ClinicalTrials.gov identifier: NCT04391595). The protocol was reviewed and approved by the Institutional Review Board of the Barrow Neurological Institute, St. Joseph's Hospital and Medical Center (Phoenix, AZ, USA). All patients enrolled in the trial provided written informed consent. […] Blood, CSF, and GBM tissue (including gadolinium-contrast enhancing and non-enhancing regions) samples were obtained intra-operatively from each patient on the […] on the planned operation day. Blood was centrifuged at 4 °C and 3,000 r/min for 10 min; plasma was subsequently collected. Brain tumors were resected 7–9 h after the last dose was administered. Once resected, the tissue samples were rinsed with PBS, paper dried, and freshly frozen in liquid nitrogen. The samples were then stored at −80 °C in a freezer for later analysis.

[2] = Analyte stability in brain homogenate; format: physicochemical, human; details: for Freeze-thaw stability, Accuracy / Freeze-thaw stability, Mean concentration / Freeze-thaw stability, Difference: 3 cycles; for Freeze-thaw stability, Difference / Benchtop stability, Difference / Processed sample stability, Difference / Autosampler stability (5 °C), Difference / Long-term stability (−20 °C), Difference: vs freshly processed QC; for Benchtop stability, Accuracy / Benchtop stability, Mean concentration / Benchtop stability, Difference: 6 h; for Processed sample stability, Accuracy / Processed sample stability, Mean concentration / Processed sample stability, Difference: 22 h; for Autosampler stability (5 °C), Accuracy / Autosampler stability (5 °C), Mean concentration / Autosampler stability (5 °C), Difference: 96 h; for Long-term stability (−20 °C), Accuracy / Long-term stability (−20 °C), Mean concentration / Long-term stability (−20 °C), Difference: 39 days
Description: (§5) The stability of the analytes was studied under various storage and processing conditions. […] Short- and long-term stability studies of all analytes were conducted in human blank plasma and brain homogenate under several storage conditions. Analyte stability in biological matrices was analyzed using freshly prepared calibration standards and QC samples. The percentage difference between the stability and freshly processed QC was also assessed. Re-injection reproducibility was evaluated within the sample stability period in the autosampler. Analytes were considered stable if the accuracy at each level was ±15.0% of the nominal value. Additionally, the difference from corresponding comparison QC samples must be within ±15.0%.

[3] = Equilibrium dialysis, fraction unbound in brain homogenate; format: in vitro ADME, human
Description: as §1, §2, §3

[4] = Analyte stability in human plasma; format: physicochemical; details: for Freeze-thaw stability, Accuracy / Freeze-thaw stability, Mean concentration / Freeze-thaw stability, Difference: 3 cycles; for Freeze-thaw stability, Difference / Benchtop stability, Difference / Processed sample stability, Difference / Autosampler stability (5 °C), Difference / Long-term stability (−20 °C), Difference: vs freshly processed QC; for Benchtop stability, Accuracy / Benchtop stability, Mean concentration / Benchtop stability, Difference: 19 h; for Processed sample stability, Accuracy / Processed sample stability, Mean concentration / Processed sample stability, Difference: 23 h; for Autosampler stability (5 °C), Accuracy / Autosampler stability (5 °C), Mean concentration / Autosampler stability (5 °C), Difference: 112 h; for Long-term stability (−20 °C), Accuracy / Long-term stability (−20 °C), Mean concentration / Long-term stability (−20 °C), Difference: 27 days
Description: as §5

[5] = Levels in intraoperatively collected CSF of GBM patients; format: in vivo; details: human, po, five GBM patients, oral LY3214996 200 mg once daily and abemaciclib 150 mg twice daily for 5 days, intraoperative CSF
Description: Blank brain and clinical brain tumor tissue homogenates were prepared at 1:9 (m/V) ratio with PBS. The samples were homogenized at a speed of 6.00 m/s for 40 s for three cycles using a Bead Ruptor Elite homogenizer (Omni International, Kennesaw, GA, USA). Plasma was used as a surrogate matrix when preparing calibration curves for brain and brain tumor homogenates and CSF as well as for the PBS fraction after sample dialysis. To minimize matrix differences, all plasma samples were spiked with PBS, while all non-plasma samples were spiked with plasma. Extraction of the analyte and IS was facilitated by protein precipitation using methanol-containing IS precipitation solution. Samples (70 μL) spiked with PBS or plasma were precipitated using 400 μL of IS precipitation solution. After centrifugation at 12,000 r/min for 10 min at 4 °C, the supernatant was transferred for LC-MS/MS analysis.
as §4

Cc1nc2c(F)cc(-c3nc(Nc4ccc(CN5CCNCC5)cn4)ncc3F)cc2n1C(C)C [M2]
fraction unbound at 16 h ([1]; pH 7.4, gadolinium contrast enhancing GBM region, read-out: Fraction unbound (fu), GBM (E)): 0.009
fraction unbound at 16 h ([1]; pH 7.4, gadolinium contrast non-enhancing GBM region, read-out: Fraction unbound (fu), GBM (NE)): 0.006
Freeze-thaw stability, Accuracy ([2]; HQC 400.0 nM): 101.3%
Freeze-thaw stability, Mean concentration ([2]; HQC 400.0 nM): 405.1 nM
Freeze-thaw stability, Difference ([2]; HQC 400.0 nM): −6.8%
Freeze-thaw stability, Accuracy ([2]; LQC 0.6 nM): 98.3%
Freeze-thaw stability, Mean concentration ([2]; LQC 0.6 nM): 0.590 nM
Freeze-thaw stability, Difference ([2]; LQC 0.6 nM): −9.4%
Benchtop stability, Accuracy ([2]; HQC 400.0 nM): 97.0%
Benchtop stability, Mean concentration ([2]; HQC 400.0 nM): 388.2 nM
Benchtop stability, Difference ([2]; HQC 400.0 nM): −5.9%
Benchtop stability, Accuracy ([2]; LQC 0.6 nM): 102.4%
Benchtop stability, Mean concentration ([2]; LQC 0.6 nM): 0.614 nM
Benchtop stability, Difference ([2]; LQC 0.6 nM): 6.9%
Processed sample stability, Accuracy ([2]; HQC 400.0 nM): 100.2%
Processed sample stability, Mean concentration ([2]; HQC 400.0 nM): 400.9 nM
Processed sample stability, Difference ([2]; HQC 400.0 nM): −2.8%
Processed sample stability, Accuracy ([2]; LQC 0.6 nM): 105.4%
Processed sample stability, Mean concentration ([2]; LQC 0.6 nM): 0.632 nM
Processed sample stability, Difference ([2]; LQC 0.6 nM): 10.0%
Autosampler stability (5 °C), Accuracy ([2]; HQC 400.0 nM): 105.4%
Autosampler stability (5 °C), Mean concentration ([2]; HQC 400.0 nM): 421.6 nM
Autosampler stability (5 °C), Difference ([2]; HQC 400.0 nM): 6.2%
Autosampler stability (5 °C), Accuracy ([2]; LQC 0.6 nM): 102.4%
Autosampler stability (5 °C), Mean concentration ([2]; LQC 0.6 nM): 0.615 nM
Autosampler stability (5 °C), Difference ([2]; LQC 0.6 nM): 13.5%
Long-term stability (−20 °C), Accuracy ([2]; HQC 400.0 nM): 103.4%
Long-term stability (−20 °C), Mean concentration ([2]; HQC 400.0 nM): 413.6 nM
Long-term stability (−20 °C), Difference ([2]; HQC 400.0 nM): −4.8%
Long-term stability (−20 °C), Accuracy ([2]; LQC 0.6 nM): 98.3%
Long-term stability (−20 °C), Mean concentration ([2]; LQC 0.6 nM): 0.590 nM
Long-term stability (−20 °C), Difference ([2]; LQC 0.6 nM): −9.5%
fraction unbound at 16 h ([3]; pH 7.4, human brain homogenate spiked at 20 and 200 nM, 16 h equilibrium dialysis, read-out: Fraction unbound (fu), Brain): 0.008
Plasma protein binding compared to binding to brain tissue components (ratio) ([3]; spiked pooled human plasma vs human brain homogenate): at least 6.5 fold
Freeze-thaw stability, Accuracy ([4]; HQC 400.0 nM): 106%
Freeze-thaw stability, Mean concentration ([4]; HQC 400.0 nM): 424.2 nM
Freeze-thaw stability, Difference ([4]; HQC 400.0 nM): 5.8%
Freeze-thaw stability, Accuracy ([4]; LQC 0.6 nM): 105.3%
Freeze-thaw stability, Mean concentration ([4]; LQC 0.6 nM): 0.632 nM
Freeze-thaw stability, Difference ([4]; LQC 0.6 nM): 5.8%
Benchtop stability, Accuracy ([4]; HQC 400.0 nM): 103.8%
Benchtop stability, Mean concentration ([4]; HQC 400.0 nM): 415.0 nM
Benchtop stability, Difference ([4]; HQC 400.0 nM): 1.1%
Benchtop stability, Accuracy ([4]; LQC 0.6 nM): 92.2%
Benchtop stability, Mean concentration ([4]; LQC 0.6 nM): 0.553 nM
Benchtop stability, Difference ([4]; LQC 0.6 nM): −1.7%
Processed sample stability, Accuracy ([4]; HQC 400.0 nM): 100.6%
Processed sample stability, Mean concentration ([4]; HQC 400.0 nM): 402.2 nM
Processed sample stability, Difference ([4]; HQC 400.0 nM): 0.7%
Processed sample stability, Accuracy ([4]; LQC 0.6 nM): 95.5%
Processed sample stability, Mean concentration ([4]; LQC 0.6 nM): 0.573 nM
Processed sample stability, Difference ([4]; LQC 0.6 nM): 3.6%
Autosampler stability (5 °C), Accuracy ([4]; HQC 400.0 nM): 97.7%
Autosampler stability (5 °C), Mean concentration ([4]; HQC 400.0 nM): 390.9 nM
Autosampler stability (5 °C), Difference ([4]; HQC 400.0 nM): −0.2%
Autosampler stability (5 °C), Accuracy ([4]; LQC 0.6 nM): 96.8%
Autosampler stability (5 °C), Mean concentration ([4]; LQC 0.6 nM): 0.581 nM
Autosampler stability (5 °C), Difference ([4]; LQC 0.6 nM): 4.8%
Long-term stability (−20 °C), Accuracy ([4]; HQC 400.0 nM): 109.2%
Long-term stability (−20 °C), Mean concentration ([4]; HQC 400.0 nM): 437.0 nM
Long-term stability (−20 °C), Difference ([4]; HQC 400.0 nM): 5.6%
Long-term stability (−20 °C), Accuracy ([4]; LQC 0.6 nM): 99.9%
Long-term stability (−20 °C), Mean concentration ([4]; LQC 0.6 nM): 0.6 nM
Long-term stability (−20 °C), Difference ([4]; LQC 0.6 nM): −3.1%
concentration at 6 day (intra-operative) ([5]; read-out: Level in CSF (range)): 1.8 to 30.4 nM
concentration at 6 day (intra-operative) ([5]; read-out: Median level in CSF): 11.7 nM
